Data taken from US8906111B2, “Artificial bone material having controlled calcium ion elution” (The University of Tokyo, priority 2008, dated 2014).

Legend:
[1] = tested on: Macrophage-like cells RAW267.4; test: Release of [3H] arachidonic acid (lipid mediator) from macrophage-like cells treated with CaCl2-gluconic acid solutions; format: cell-based; settings: FIG. 3
Protocol: An increased concentration of extracellular calcium ions activates an inflammatory response route through increase of intracellular calcium ion and/or a sensing mechanism of extracellular calcium ion. The present inventors studied whether induction of inflammatory responses due to increase of calcium ions can be prevented or not by chelating calcium ions. Solutions of 5 mM CaCl2—0.384% gluconic acid and 7.5 mM CaCl2—0.384% gluconic acid (referred to as Ca^2+Gluc.Acid), the pH of which were adjusted to approximately 7 with NaOH, were prepared and allowed to stand for one hour at room temperature. Macrophage-like cells RAW267.4, which were labeled with 1 μCi [^3H] arachidonic acid one day before, were treated with respective CaCl2-gluconic acid solutions for one hour, and measured for the amount of released lipid mediator with a liquid scintillation counter.
FIG. 3 is a graph, in place of a drawing, showing that gluconic acid prevents inflammatory responses induced by calcium ions. Each vertical axis of FIGS. 3A and 3B indicates release of arachidonic acid (rates of released [^3H] arachidonic acid). The higher value refers to more arachidonic acid being released, indicating an activation of arachidonate cascade, which is one of the major inflammatory responses. In FIG. 3, the “mock” refers to a sample without CaCl2 or gluconic acid addition, which was prepared as a control. […]

[2] = Chelating effect on calcium ion measured with a calcium ion electrode; format: physicochemical; settings: 0.25% to 25% gluconic acid containing 2.5 mM CaCl2, pH 7.0; FIG. 2
Protocol: To confirm chelating effects of gluconic acid on calcium ion, the concentration of calcium ion in the presence of gluconic acid was measured with a calcium ion electrode. The vertical axis of FIG. 2 indicates the concentration of calcium ion (Ca^2+) (mg/L). […] The results might be attributed to the gluconic acid chelating calcium ions.

Structure (SMILES): [Ca+2].[Cl-].[Cl-] [CaCl2]
- release of arachidonic acid (amount of released lipid mediator) ([1]; CaCl2 (5 mM or 7.5 mM) without gluconic acid, compared with the mock): released increased amount of lipid mediator

Structure (SMILES): O=C(O)[C@H](O)[C@@H](O)[C@H](O)[C@H](O)CO [gluconic acid]
- concentration of calcium ion (Ca2+) [2]: the higher the concentration of gluconic acid became, the concentration of calcium ion lowered
- release of arachidonic acid (rates of released [3H] arachidonic acid) ([1]; 5 mM or 7.5 mM CaCl2 with 0.384% gluconic acid, pH approx. 7, cells treated one hour): arachidonate cascade activation was prevented
